Patent US20240109936A1, “NOVEL M[…] PEPTIDES” (University of Florida Research Foundation, Incorporated, priority 2020, published 2024)
Where a SMILES comes first, the peptide text is derived from it.

Experiments:
κ opioid receptor = biological target: T1, κ opioid receptor (Mus musculus, UniProt P33534); conditions: non-peptide KOR antagonists; cited from earlier work
T1 construct: host or cells: living animal (CNS), endogenous receptor

mice [1] = assay: Forced swim stress-induced increase in morphine consumption, two-bottle choice assay; format: in vivo, mouse; conditions: orally administered, FIG. 13
mice [2] = conditions: 3930 alone; place conditioning daily for 2 days; FIG. 33
Description: For conditioned place preference assay/reinstatement testing are conducted essentially as described for example in Brice-Tutt A C, Wilson L L, Eans S O, Stacy H M, Simons C A, Simpson G G, Coleman J S, Ferracane M J, Aldrich J V, McLaughlin J P: Multifunctional opioid receptor agonism and antagonism by a novel macrocyclic tetrapeptide prevents reinstatement of morphine-seeking behavior. British Journal of Pharmacology, 177(18):4209-4222, 2020. doi: 10.1111/bph.15165.

mice [3] = assay: Reinstatement of extinguished morphine conditioned place preference (forced swim stress- or morphine-induced); format: in vivo, mouse; conditions: 30 mg/kg, p.o., FIG. 34
mice [4] = assay: Naloxone precipitated withdrawal (jumping behavior) in morphine-treated mice; format: in vivo, mouse; conditions: five days of morphine injections; 30 mg/kg, p.o. 1 hour prior to naloxone (10 mg/kg, s.c.); FIG. 35
Description: For naloxone precipitated withdrawal or 2-bottle choice (TBC) assay testing are conducted essentially as described for example in Wilson L L, Harris H M, Brice-Tutt A C, Cirino T J, Eans S O, Stacy H M, Simons C A, Sharma A, Leon J F, Boyer E W, Avery B A, McLaughlin J P, McCurdy C M: Lyophilized Kratom tea as a therapeutic option for opioid dependence. Drug and Alcohol Dependence, 216:108310-108318, 2020. https://doi.org/10.1016/j.drugalcdep.2020.108310; and as follows;

T1 sequence (P33534 whole entry): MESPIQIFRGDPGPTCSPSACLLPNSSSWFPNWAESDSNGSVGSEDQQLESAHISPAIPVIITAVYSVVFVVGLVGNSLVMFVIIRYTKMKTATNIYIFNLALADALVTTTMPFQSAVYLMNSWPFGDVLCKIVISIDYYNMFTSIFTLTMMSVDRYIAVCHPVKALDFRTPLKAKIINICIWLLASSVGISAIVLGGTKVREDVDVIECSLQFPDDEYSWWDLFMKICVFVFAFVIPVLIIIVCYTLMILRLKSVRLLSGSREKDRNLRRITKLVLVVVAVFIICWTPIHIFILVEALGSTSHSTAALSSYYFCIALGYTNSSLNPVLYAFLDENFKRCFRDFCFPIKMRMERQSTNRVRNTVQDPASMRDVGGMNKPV

N=C(N)Nc1ccc2[nH]c3c(c2c1)C[C@@]1(O)[C@H]2Cc4ccc(O)c5c4[C@@]1(CCN2CC1CC1)[C@H]3O5 [5-guanidinylnaltrindole]
duration of antagonism (κ opioid receptor): unusually long duration of antagonism

CC(C)[C@@H](CN1CC[C@@](C)(c2cccc(O)c2)[C@@H](C)C1)NC(=O)[C@H]1Cc2ccc(O)cc2CN1 [JDTic]
duration of antagonism (κ opioid receptor): unusually long duration of antagonism

O=C1N[C@H](Cc2ccccc2C(F)(F)F)C(=O)N[C@@H](Cc2ccccc2)C(=O)N2CCC[C@@H]2C(=O)N[C@H]1Cc1ccccc1 [compound 3930, cyclo[Phe-D-Pro-Phe-D-Phe(2-CF3)]] (HELM PEPTIDE1{F.[dP].F.[O=C([C@@H](Cc1ccccc1C(F)(F)F)N[*:1])[*:2]]}$PEPTIDE1,PEPTIDE1,1:R1-4:R2$$$V2.0)
stress-induced increase in consumption of a morphine solution (mice [1]): can prevent a stress-induced increase in consumption of a morphine solution | conditioned place preference or aversion (mice [2]): did not produce conditioned place preference or aversion | stress- (forced swim stress, FSS) induced reinstatement of extinguished morphine-CPP (mice [3]; administered 5 min or 2.5 hr prior to FSS exposure): prevented stress-induced reinstatement of place preference | drug-seeking behavior after an additional round of morphine-place conditioning (mice [3]; administered 5 min prior to additional round of morphine-place conditioning): no significant effect on drug-seeking behavior | frequency of jumping behavior following administration of naloxone (mice [4]): significantly reduced instances of jumping behavior

Oc1ccc2c3c1O[C@H]1c4[nH]c5c(c4C[C@@]4(O)[C@@H](C2)N(CC2CC2)CC[C@]314)C[C@@]1(O)[C@H]2Cc3ccc(O)c4c3[C@@]1(CCN2CC1CC1)[C@H]5O4 [nor-binaltorphimine]
duration of antagonism (κ opioid receptor): unusually long duration of antagonism
